Patent US20110263454A1, “Methods of Identifying Functional Characteristics of Promoters, Transcription Modifying Proteins and Transcription Modulating Agents” (Salk Institute for Biological Studies, priority 2008, published 2011)

Columns and labels:
[1] = tested on: mDio2 promoter; assay: NHR-promoter luciferase screen, mDio2 promoter; type: cell-based, mouse; conditions: for Luc. act., normalized to lacZ / Normalized Luc. act., normalized to control: Dio2, HR component without or with its ligand; for mDio2 promoter reporter activity: transcription factor +/- ligand, control = 1.00
Experimental: (§1) The use, feasibility, and reproducibility of the functional NHR-promoter screen in a 48-well format have been tested validated. Briefly, there were co-expressed 50 ng of each NHR/NHR homodimer or NHR/RXR heterodimer with 100 ng promoter/luciferase construct and 50 ng of LacZ (as a control for transfection efficiency) in CV-1 cells using Fugene HD (Roche) as a transfection reagent (alternatively or additionally, a CMV-YFP construct can be used as a transfection control). Each of the nuclear hormone receptors that were used in these experiments was cloned into a pcDNA3.1 vector and comprised a C-terminally linked V5H6 tag. Twenty-four hours after transfection, appropriate ligands were added, where applicable, (see Table 5 for various ligands and concentrations and after 48 hrs, samples were assayed for luciferase and LacZ activity. To measure for luciferase activity 15 ul of sample was added to 30 ul of luciferase buffer (20 mM tricine, 1.07 mM MgCarbonate, 2.67 mM MgSulfate, 0.1 mM Naz-EDTA, 5 mM DTT, 5 mM ATP, 0.15 mg/ml CoA, 0.5 mM Luciferin), mixed briefly, and run in a Perkin Elmer Victor 5 luminometer. Thus, the functional NHR-promoter screen was used to observe the transcriptional activity of 29 promoters from various physiological pathways including inflammation, lipid and sugar metabolism, cholesterol transport, xenobiotic metabolism, and circadian rhythm.
(§2) The promoters that facilitate transcription of the indicated gene products that were tested using the protocols described herein are listed in the first row of the table. The nuclear hormone receptors and, where applicable, ligands that were assayed for their transcriptional effects on the promoters are listed in the first column of the table. The data represent the luciferase activity of each sample normalized to both the lacZ activity of that sample and to a control, e.g., no NHR or ligand, as customary in the art. As described previously, these normalizations allow the transcriptional activity of each reporter cell to be compared to other samples.
(§3) Tables 7-40 show the transcriptional effects of the hormone receptors, and, where applicable, ligands (orphan receptors are screened without ligand), on each individual promoter. […] The control data of each table are shown in their last rows.

[2] = tested on: hMyoD promoter; assay: NHR-promoter luciferase screen, hMyoD promoter; type: cell-based, human; conditions: for Luc. act., normalized to lacZ / Normalized Luc. act., normalized to control: MyoD promoter reporter, co-transfected HR, without or with its ligand; for Normalized Luc. act., normalized to control: relative to control; for luciferase activity normalized to lacZ activity and to a control, hMyoD: hMyoD promoter-luciferase, CV-1 cells, NHR +/- ligand, control = 1.00
Experimental: as §1, §2, §3

[3] = tested on: mUCP3 promoter; assay: NHR-promoter luciferase screen, mUCP3 promoter; type: cell-based, mouse; conditions: for Normalized Luc. act., normalized to control / Luc. act., normalized to lacZ: mUCP3 promoter reporter; for Normalized Luc. act., normalized to control: HR without or with its ligand, relative to control; for Luc. act., normalized to lacZ: hormone receptor (HR) without or with its ligand; for mUCP3 promoter reporter activity: transcription factor +/- ligand, control = 1.00
Experimental: as §1, §2, §3

[4] = tested on: hCAR promoter; assay: NHR-promoter luciferase screen, hCAR promoter; type: cell-based, human; conditions: for luciferase activity normalized to lacZ activity and to a control, hCAR: hCAR promoter-luciferase, CV-1 cells, NHR +/- ligand, control = 1.00; for Luc. act., normalized to lacZ / Normalized Luc. act., normalized to control: hCAR promoter, HR/ligand component
Experimental: as §1, §2, §3

[5] = tested on: mABCA1 promoter; assay: NHR-promoter luciferase screen, mABCA1 promoter; type: cell-based, mouse; conditions: for Luc. act., normalized to lacZ / Normalized Luc. act., normalized to control: ABCA1 promoter, hormone receptor with or without its ligand; for Normalized Luc. act., normalized to control: relative to control; for mABCA1 promoter reporter activity: transcription factor +/- ligand, control = 1.00
Experimental: as §1, §2, §3

[6] = tested on: mNPY promoter; assay: NHR-promoter luciferase screen, mNPY promoter; type: cell-based, mouse; conditions: for Results of assays of transcription factor (+/- ligand) with mNPY: Table 6d, luciferase activity relative to control (control = 1.00); for Luc. act., normalized to lacZ / Normalized Luc. act., normalized to control: mNPY promoter, HR component with or without ligand; for Normalized Luc. act., normalized to control: relative to control
Experimental: as §1, §2, §3

RXRa: Retinoic X Receptor α (NR2B1), cDNA driver
Luc. act., normalized to lacZ [1]: 18.6
Normalized Luc. act., normalized to control [1]: 1.2
mDio2 promoter reporter activity [1]: 1.18
Luc. act., normalized to lacZ [2]: 51.2
Normalized Luc. act., normalized to control [2]: 0.8
luciferase activity normalized to lacZ activity and to a control, hMyoD [2]: 0.81
Normalized Luc. act., normalized to control [3]: 1.3
Luc. act., normalized to lacZ [3]: 0.9
mUCP3 promoter reporter activity [3]: 1.27
luciferase activity normalized to lacZ activity and to a control, hCAR [4]: 0.78
Luc. act., normalized to lacZ [4]: 24.7
Normalized Luc. act., normalized to control [4]: 0.8
Luc. act., normalized to lacZ [5]: 8.7
Normalized Luc. act., normalized to control [5]: 1.6
mABCA1 promoter reporter activity [5]: 1.56
Results of assays of transcription factor (+/- ligand) with mNPY [6]: 0.95
Luc. act., normalized to lacZ [6]: 80.0
Normalized Luc. act., normalized to control [6]: 1.0

NR4a1: NR4a1 (NR4A1; NUR77), nuclear hormone receptor cDNA driver
Luc. act., normalized to lacZ [1]: 21.8
Normalized Luc. act., normalized to control [1]: 1.4
mDio2 promoter reporter activity [1]: 1.39
Luc. act., normalized to lacZ [2]: 152.5
Normalized Luc. act., normalized to control [2]: 2.4
luciferase activity normalized to lacZ activity and to a control, hMyoD [2]: 2.41
Normalized Luc. act., normalized to control [3]: 2.1
Luc. act., normalized to lacZ [3]: 1.40
mUCP3 promoter reporter activity [3]: 2.07
luciferase activity normalized to lacZ activity and to a control, hCAR [4]: 0.97
Luc. act., normalized to lacZ [4]: 30.7
Normalized Luc. act., normalized to control [4]: 1.0
Luc. act., normalized to lacZ [5]: 11.4
Normalized Luc. act., normalized to control [5]: 2.0
mABCA1 promoter reporter activity [5]: 2.04
Results of assays of transcription factor (+/- ligand) with mNPY [6]: 0.92
Luc. act., normalized to lacZ [6]: 77.0
Normalized Luc. act., normalized to control [6]: 0.9

TLX: Tailless (homolog of drosophila) (NR2E1), cDNA driver
Luc. act., normalized to lacZ [1]: 9.5
Normalized Luc. act., normalized to control [1]: 0.6
mDio2 promoter reporter activity [1]: 0.60
Luc. act., normalized to lacZ [2]: 31.3
Normalized Luc. act., normalized to control [2]: 0.5
luciferase activity normalized to lacZ activity and to a control, hMyoD [2]: 0.49
Normalized Luc. act., normalized to control [3]: 1.1
Luc. act., normalized to lacZ [3]: 0.8
mUCP3 promoter reporter activity [3]: 1.11
luciferase activity normalized to lacZ activity and to a control, hCAR [4]: 0.56
Luc. act., normalized to lacZ [4]: 17.6
Normalized Luc. act., normalized to control [4]: 0.6
Luc. act., normalized to lacZ [5]: 21.8
Normalized Luc. act., normalized to control [5]: 3.9
mABCA1 promoter reporter activity [5]: 3.88
Results of assays of transcription factor (+/- ligand) with mNPY [6]: 1.11
Luc. act., normalized to lacZ [6]: 93.5
Normalized Luc. act., normalized to control [6]: 1.1

PPARa: Peroxisome proliferator activated receptor α (NR1C1), cDNA driver
Luc. act., normalized to lacZ [1]: 23.0
Normalized Luc. act., normalized to control [1]: 1.5
mDio2 promoter reporter activity [1]: 1.46
Luc. act., normalized to lacZ [2]: 63.7
Normalized Luc. act., normalized to control [2]: 1.0
luciferase activity normalized to lacZ activity and to a control, hMyoD [2]: 1.01
Normalized Luc. act., normalized to control [3]: 2.1
Luc. act., normalized to lacZ [3]: 1.5
mUCP3 promoter reporter activity [3]: 2.15
luciferase activity normalized to lacZ activity and to a control, hCAR [4]: 1.39
Luc. act., normalized to lacZ [4]: 43.9
Normalized Luc. act., normalized to control [4]: 1.4
Luc. act., normalized to lacZ [5]: 10.7
Normalized Luc. act., normalized to control [5]: 1.9
mABCA1 promoter reporter activity [5]: 1.90
Results of assays of transcription factor (+/- ligand) with mNPY [6]: 0.62
Luc. act., normalized to lacZ [6]: 51.7
Normalized Luc. act., normalized to control [6]: 0.6

SF-1: Steroidogenic Factor 1 (NR5A1, SF1), cDNA driver
Luc. act., normalized to lacZ [1]: 63.2
Normalized Luc. act., normalized to control [1]: 4.0
mDio2 promoter reporter activity [1]: 4.02
Luc. act., normalized to lacZ [2]: 151.2
Normalized Luc. act., normalized to control [2]: 2.4
luciferase activity normalized to lacZ activity and to a control, hMyoD [2]: 2.39
Normalized Luc. act., normalized to control [3]: 5.5
Luc. act., normalized to lacZ [3]: 3.7
mUCP3 promoter reporter activity [3]: 5.46
luciferase activity normalized to lacZ activity and to a control, hCAR [4]: 3.60
Luc. act., normalized to lacZ [4]: 113.6
Normalized Luc. act., normalized to control [4]: 3.6
Luc. act., normalized to lacZ [5]: 34.4
Normalized Luc. act., normalized to control [5]: 6.1
mABCA1 promoter reporter activity [5]: 6.12
Results of assays of transcription factor (+/- ligand) with mNPY [6]: 2.12
Luc. act., normalized to lacZ [6]: 177.6
Normalized Luc. act., normalized to control [6]: 2.1

B1: HNF4a: Hepatocyte Nuclear Factor α (NR2A1), cDNA driver (protein, UniProt P41235 1-474, looked up)
Hepatocyte nuclear factor …: MRLSKTLVDMDMADYSAALDPAYTTLEFENVQVLTMGNDTSPSEGTNLNAPNSLGVSALCAICGDRATGKHYGASSCDGCKGFFRRSVRKNHMYSCRFSRQCVVDKDKRNQCRYCRLKKCFRAGMKKEAVQNERDRISTRRSSYEDSSLPSINALLQAEVLSRQITSPVSGINGDIRAKKIASIADVCESMKEQLLVLVEWAKYIPAFCELPLDDQVALLRAHAGEHLLLGATKRSMVFKDVLLLGNDYIVPRHCPELAEMSRVSIRILDELVLPFQELQIDDNEYAYLKAIIFFDPDAKGLSDPGKIKRLRSQVQVSLEDYINDRQYDSRGRFGELLLLLPTLQSITWQMIEQIQFIKLFGMAKIDNLLQEMLLGGSPSDAPHAHHPLHPHLMQEHMGTNVIVANTMPTHLSNGQMCEWPRPRGQAATPETPQPSPPGGSGSEPYKLLPGAVATIVKPLSAIPQPTITKQEVI
Luc. act., normalized to lacZ [1]: 33.6
Normalized Luc. act., normalized to control [1]: 2.1
mDio2 promoter reporter activity [1]: 2.14
Luc. act., normalized to lacZ [2]: 65.5
Normalized Luc. act., normalized to control [2]: 1.0
luciferase activity normalized to lacZ activity and to a control, hMyoD [2]: 1.03
Normalized Luc. act., normalized to control [3]: 1.1
Luc. act., normalized to lacZ [3]: 0.7
mUCP3 promoter reporter activity [3]: 1.06
luciferase activity normalized to lacZ activity and to a control, hCAR [4]: 15.62
Luc. act., normalized to lacZ [4]: 493.6
Normalized Luc. act., normalized to control [4]: 15.6
Luc. act., normalized to lacZ [5]: 10.7
Normalized Luc. act., normalized to control [5]: 1.9
mABCA1 promoter reporter activity [5]: 1.90
Results of assays of transcription factor (+/- ligand) with mNPY [6]: 0.52
Luc. act., normalized to lacZ [6]: 43.5
Normalized Luc. act., normalized to control [6]: 0.5
